Experimental data published in patent US6342245B1, “Compositions of lipid lowering agents” (Janssen Pharmaceutica N.V., priority 1997, dated 2002).

System: apolipoprotein B
Test: Apolipoprotein B (apo B) inhibition test
Assay type: cell-based, human
Details: Hep G2-cells; concentration needed to reduce apoB secretion to 50% of the control
Description: Cultured human liver cells (Hep G2-cells ) which synthesize and secrete low-density lipoproteins, were incubated overnight at 37° C. in a liquid medium containing radioactively labelled leucine. Thus radioactively labelled leucine was incorporated into the apolipoprotein B. The liquid medium was decanted and the apolipoprotein B was isolated by means of a double immunoprecipitation, i.e. first an apolipoprotein B-specific antibody (antibody1) was added to the liquid medium and subsequently a second antibody (antibody2) was added which binds specifically to the apoB-antibody1-complex. The thus formed apoB-antibody1-antibody2 complex precipitated and was isolated by centrifuge. Quantification of the amount of apolipoprotein B synthesized during the night resulted from measuring the radioactivity of the isolated complex. […] For each experiment the inhibition of apolipoprotein-B formation was expressed as [formula]
When more experiments were carried out for the same concentration, the median value of the inhibition calculated for these experiments was calculated. […]

**Q.** Which IC50 does the source give for `CCC(C)n1ncn(-c2ccc(N3CCN(c4ccc(OC[C@H]5CO[C@](CSc6nncn6C)(c6ccc(Cl)cc6)O5)cc4)CC3)cc2)c1=O` (relative stereo) [Compound 40, cis-4-[4-[4-[4-[[2-(4-chlorophenyl)-2-[[(4-methyl-4H-1,2,4-triazol-3-yl)thio]methyl]-1,3-dioxolan-4-yl]methoxy]phenyl]-1-piperazinyl]phenyl]-2,4-dihydro-2-(1-methyl-propyl)-3H-1,2,4-triazol-3-one] here?
**A.** 0.023 µM
